Experimental data reported in patent US6855710B2, “Substituted indolines with an inhibitory effect on various kinases and complexes of CDKs” (Boehringer Ingelheim Pharma KG, priority 1998, dated 2005).

SMILES	melting point
CN1CCN(CCc2ccc(N/C(=C3\C(=O)Nc4ccc([N+](=O)[O-])cc43)c3ccccc3)cc2)CC1 [Example 135, (Z)-3-{1-[4-(2-(4-methylpiperazino)-ethyl)-phenylamino]-1-phenyl-methylidene}-5-nitro-2-indolinone]	238 to 240 °C
CN(C)CCS(=O)(=O)N(C)c1ccc(N/C(=C2\C(=O)Nc3ccccc32)c2ccccc2)cc1 [Example 382, (Z)-3-{1-[4-(N-(2-dimethylamino-ethylsulphonyl)-N-methyl-amino)-phenylamino]-1-phenyl-methylidene}-2-indolinone]	165 to 168 °C
COCCNCC(=O)N(C)c1ccc(N/C(=C2\C(=O)Nc3ccccc32)c2ccccc2)cc1 [Example 371, (Z)-3-{1-[4-(N-(2-methoxyethylaminomethylcarbonyl)-N-methyl-amino)-phenylamino]-1-phenyl-methylidene}-2-indolinone]	186 to 188 °C
CS(=O)(=O)NCc1ccc(N/C(=C2\C(=O)Nc3ccc([N+](=O)[O-])cc32)c2ccccc2)cc1 [Example 167, (Z)-3-[1-(4-methylsulphonylaminomethyl-phenylamino)-1-phenyl-methylidene]-5-nitro-2-indolinone]	294 to 296 °C
CC(C)(C)OC(=O)NCC(=O)NCc1cccc(N/C(=C2\C(=O)Nc3ccc([N+](=O)[O-])cc32)c2ccccc2)c1 [Example 136, (Z)-3-[1-(3-tert.butoxycarbonylaminomethylcarbonylaminomethyl-phenylamino)-1-phenyl-methylidene]-5-nitro-2-indolinone]	228 °C
CC(=O)N(CCN(C)C)c1ccc(N/C(=C2\C(=O)Nc3ccccc32)c2ccccc2)cc1 [Example 340, (Z)-3-{1-[4-(N-(2-dimethylaminoethyl)-N-acetyl-amino)-phenylamino]-1-phenyl-methylidene}-2-indolinone]	197 to 199 °C
CNCCc1ccc(N/C(=C2\C(=O)Nc3ccc([N+](=O)[O-])cc32)c2ccccc2)cc1 [Example 254, (Z)-3-{1-[4-(2-methylamino-ethyl)-phenylamino]-1-phenyl-methylidene}-5-nitro-2-indolinone]	250 to 252 °C
NCc1ccc(/C(Nc2ccccc2)=C2/C(=O)Nc3ccc([N+](=O)[O-])cc32)cc1 [Example 154, (Z)-3-[1-phenylamino-1-(4-aminomethyl-phenyl)-methylidene]-5-nitro-2-indolinone]	332 °C (dec.)
CN(C)CC(=O)NCc1cccc(N/C(=C2\C(=O)Nc3ccc([N+](=O)[O-])cc32)c2ccccc2)c1 [Example 106, (Z)-3-[1-(3-dimethylaminomethylcarbonylaminomethyl-phenylamino)-1-phenyl-methylidene]-5-nitro-2-indolinone]	171 to 173 °C
O=C(O)CNC(=O)c1ccc(N/C(=C2\C(=O)Nc3ccccc32)c2ccccc2)cc1 [Example 393, (Z)-3-{1-[4-(carboxymethylaminocarbonyl)-phenylamino]-1-phenyl-methylidene}-2-indolinone]	245 to 247 °C
CN(C)CC(=O)Nc1ccc(N/C(=C2\C(=O)Nc3ccc([N+](=O)[O-])cc32)c2ccccc2)cc1 [Example 94, (Z)-3-[1-(4-dimethylaminomethylcarbonylamino-phenylamino)-1-phenyl-methylidene]-5-nitro-2-indolinone]	254 to 257 °C
CC(=O)NCc1ccc(/C(Nc2ccc(CNC(=O)OC(C)(C)C)cc2)=C2/C(=O)Nc3ccc([N+](=O)[O-])cc32)cc1 [Example 150, (Z)-3-[1-(4-tert.butoxycarbonylaminomethyl-phenylamino)-1-(4-acetylaminomethyl-phenyl)-methylidene]-5-nitro-2-indolinone]	234 °C (dec.)
O=C1Nc2ccccc2/C1=C(/Nc1ccc(NS(=O)(=O)CCN2CCOCC2)cc1)c1ccccc1 [Example 381, (Z)-3-{1-[4-(2-morpholinoethylsulphonylamino)-phenylamino]-1-phenyl-methylidene}-2-indolinone]	240 to 242 °C
CCCCS(=O)(=O)N(CCN(C)C)c1ccc(N/C(=C2\C(=O)Nc3ccccc32)c2ccccc2)cc1 [Example 453, (Z)-3-[1-(4-(N-(2-dimethylaminoethyl)-N-butylsulphonyl-amino)-phenylamino)-1-phenyl-methylidene]-2-indolinone]	225 to 227 °C
CN(C)CCNS(=O)(=O)c1ccc(N/C(=C2\C(=O)Nc3ccccc32)c2ccccc2)cc1 [Example 399, (Z)-3-{1-[4-(2-dimethylamino-ethylaminosulphonyl)-phenylamino]-1-phenyl-methylidene}-2-indolinone]	233 to 235 °C
CN(Cc1ccc(N/C(=C2\C(=O)Nc3ccc([N+](=O)[O-])cc32)c2ccccc2)cc1)C1CC1 [Example 275, (Z)-3-{1-[4-((N-cyclopropyl-N-methyl-amino)-methyl)-phenylamino]-1-phenyl-methylidene}-5-nitro-2-indolinone]	216 to 217 °C
O=C(O)CN(C(=O)c1ccccc1)c1ccc(N/C(=C2\C(=O)Nc3ccccc32)c2ccccc2)cc1 [Example 361, (Z)-3-{1-[4-(N-carboxymethyl-N-benzoyl-amino)-phenylamino]-1-phenyl-methylidene}-2-indolinone]	277 °C (dec.)
CC(=O)NCc1ccc(N/C(=C2\C(=O)Nc3ccc([N+](=O)[O-])cc32)c2ccccc2)cc1 [Example 143, (Z)-3-[1-(4-acetylaminomethyl-phenylamino)-1-phenyl-methylidene]-5-nitro-2-indolinone]	345 to 346 °C
Cl.NCC(=O)NCc1ccc(N/C(=C2\C(=O)Nc3ccc([N+](=O)[O-])cc32)c2ccccc2)cc1	225 to 228 °C
O=CN(CCN1CCOCC1)c1ccc(N/C(=C2\C(=O)Nc3ccc([N+](=O)[O-])cc32)c2ccccc2)cc1 [Example 333, (Z)-3-{1-[4-(N-(2-morpholinoethyl)-N-formyl-amino)-phenylamino]-1-phenyl-methylidene}-5-nitro-2-indolinone]	207 °C
CCN(CC)Cc1ccc(N/C(=C2\C(=O)Nc3ccc([N+](=O)[O-])cc32)c2ccccc2)cc1 [Example 159, (Z)-3-[1-(4-diethylaminomethyl-phenylamino)-1-phenyl-methylidene]-5-nitro-2-indolinone]	173 to 174 °C
CC(=O)Nc1ccc(N/C(=C2\C(=O)Nc3ccc([N+](=O)[O-])cc32)c2ccccc2)cc1 [Example 93, (Z)-3-[1-(4-acetylamino-phenylamino)-1-phenyl-methylidene]-5-nitro-2-indolinone]	328 to 330 °C

Further lines, results first:

melting point	SMILES
244 to 246 °C	CN(C)CCc1ccc(N/C(=C2\C(=O)Nc3ccccc32)c2ccccc2)cc1 [Example 268, (Z)-3-{1-[4-(2-dimethylamino-ethyl)-phenylamino]-1-phenyl-methylidene}-2-indolinone]
236 to 237 °C	NCc1ccc(N/C(=C2\C(=O)Nc3ccccc32)c2ccccc2)cc1 [Example 55, (Z)-3-[1-(4-aminomethyl-phenylamino)-1-phenyl-methylidene]-2-indolinone]
235 to 237 °C	N=C(N)c1cccc(N/C(=C2\C(=O)Nc3ccccc32)c2ccccc2)c1 [Example 64, (Z)-3-[1-(3-amidinophenylamino)-1-phenyl-methylidene]-2-indolinone]
325 °C	O=C1Nc2ccccc2/C1=C(/Nc1ccccc1)c1ccccc1 [Example 1, (Z)-3-(1-Anilino-1-phenyl-methylidene)-2-indolinone]
261 °C	CN(c1cccc(N/C(=C2\C(=O)Nc3ccccc32)c2ccccc2)c1)S(C)(=O)=O [Example 184, (Z)-3-{1-[3-(N-methyl-N-methylsulphonyl-amino)-phenylamino]-1-phenyl-methylidene}-2-indolinone]
235 to 237 °C	CCOC(=O)CNC(=O)c1ccc(N/C(=C2\C(=O)Nc3ccccc32)c2ccccc2)cc1 [Example 392, (Z)-3-{1-[4-(ethoxycarbonylmethylaminocarbonyl)-phenylamino]-1-phenyl-methylidene}-2-indolinone]
233 to 235 °C	CCOC(=O)CNC(=O)c1cccc(N/C(=C2\C(=O)Nc3ccccc32)c2ccccc2)c1 [Example 23, (Z)-3-[1-(3-ethoxycarbonylmethylaminocarbonyl-phenylamino)-1-phenyl-methylidene]-2-indolinone]
130 to 133 °C	CCOC(=O)CNCc1cccc(N/C(=C2\C(=O)Nc3ccc([N+](=O)[O-])cc32)c2ccccc2)c1 [Example 111, (Z)-3-[1-(3-ethoxycarbonylmethylaminomethyl-phenylamino)-1-phenyl-methylidene]-5-nitro-2-indolinone]
321 to 323 °C	NC(=O)c1ccc(N/C(=C2\C(=O)Nc3ccccc32)c2ccccc2)cc1 [Example 20, (Z)-3-[1-(4-aminocarbonyl-phenylamino)-1-phenyl-methylidene]-2-indolinone]
196 to 199 °C	CCOC(=O)CNS(=O)(=O)c1ccc(N/C(=C2\C(=O)Nc3ccccc32)c2ccccc2)cc1 [Example 406, (Z)-3-{1-[4-(ethoxycarbonylmethylaminosulphonyl)-phenylamino]-1-phenyl-methylidene}-2-indolinone]
178 to 181 °C	CCOC(=O)Cc1cccc(N/C(=C2\C(=O)Nc3ccccc32)c2ccccc2)c1 [Example 11, (Z)-3-[1-(3-ethoxycarbonylmethyl-phenylamino)-1-phenyl-methylidene]-2-indolinone]
250 to 252 °C	CNC(=O)c1cccc(N/C(=C2\C(=O)Nc3ccccc32)c2ccccc2)c1 [Example 21, (Z)-3-[1-(3-methylaminocarbonyl-phenylamino)-1-phenyl-methylidene]-2-indolinone]
265 to 268 °C	CCOC(=O)CCCN(c1ccc(N/C(=C2\C(=O)Nc3ccccc32)c2ccccc2)cc1)S(C)(=O)=O [Example 195, (Z)-3-{1-[4-(N-(3-ethoxycarbonyl-propyl)-N-methylsulphonyl-amino)-phenylamino]-1-phenyl-methylidene}-2-indolinone]
